Measured values taken from ChEMBL document CHEMBL1128143, “The synthesis of 5-substituted camptothecins as potential inhibitors of DNA topoisomerase I” (1995).

What was measured:
Type in all cases: functional
PLC = assay: Inhibitory activity against PLC cell line; inactive; conditions: Homo sapiens, read-out: ID50 (the source's name)
KB = assay: Inhibitory activity against protein linked DNA breaks in KB cells at 25 ug/mL after 1 hour; conditions: Homo sapiens
BT-549 = assay: Inhibitory activity against BT549 cell line; inactive; conditions: Homo sapiens, read-out: ID50 (the source's name)
A549 = assay: Inhibitory activity against A549 cell line; inactive; conditions: Homo sapiens, read-out: ID50 (the source's name)
SW480 = assay: Inhibitory activity against SW480 cell line; inactive; conditions: Homo sapiens, read-out: ID50 (the source's name)

| SMILES | IC50 (PLC) [µM] | inhibition at 25 µg/mL (KB) [%] | IC50 (BT-549) [µM] | IC50 (A549) [µM] | IC50 (SW480) [µM] |
| --- | --- | --- | --- | --- | --- |
| CC[C@@]1(O)C(=O)OCc2c1cc1n(c2=O)[C@H](CO)c2cc3ccccc3nc2-1 | > 5 | 20.4 | > 5 | > 5 | > 5 |
| CC[C@@]1(O)C(=O)OCc2c1cc1n(c2=O)Cc2c-1nc1ccccc1c2CO | – | 97.6 | – | – | – |
| CC[C@@]1(O)C(=O)OCc2c1cc1n(c2=O)C(CO)(CO)c2cc3ccccc3nc2-1 | > 5 | 0 | > 5 | > 5 | > 5 |
| CC[C@@]1(O)C(=O)OCc2c1cc1n(c2=O)Cc2cc3ccccc3nc2-1 [CAMPTOTHECIN] | – | 100 | – | – | – |
| CC[C@@]1(O)C(=O)OCc2c1cc1n(c2=O)[C@H](C(=O)c2cc(OC)c(OC)c(OC)c2)c2cc3ccccc3nc2-1 | > 5 | 0 | > 5 | > 5 | > 5 |
| CC[C@@]1(O)C(=O)OCc2c1cc1n(c2=O)[C@@H](CO)c2cc3ccccc3nc2-1 | > 5 | 8.7 | > 5 | > 5 | > 5 |
| CC[C@@]1(O)C(=O)OCc2c1cc1n(c2=O)Cc2c-1nc1ccccc1c2C=O | – | 107 | – | – | – |
